Where a name gives a salt, the structure may show the parent alone.
Key:
[1] = biological target: T1, AKT3 (Homo sapiens, UniProt Q9Y243); assay: In vitro enzyme activity test (HTRF kinEASE TK), AKT3; format: biochemical; details: enzyme 0.3 ng/well, reaction 50 min
T1 construct: purchased Invitrogen PV3185
Method: (§1) Experimental Procedure 2.1 Preparation of Reagents
(§2) 1 mL 1× Kinase Reaction Buffer of Kinase AKT1, AKT2 and AKT3 contain 200 μL 5× Kinase Reaction Buffer, 5 μL 1 M MgCl2, 1 μL 1 M DTT and 794 μL ultrapure water.
(§3) In addition to the control wells, 4 μL of the diluted compound working solutions were added to all reaction wells.
(§4) b) 2 μL of the previously prepared TK-biotin substrate solution was added to all reaction wells.
(§5) c) 2 μL of the previously prepared enzyme solution was added to all reaction wells, except the negative wells. The volume of the negative well was filled with 2 μL of enzyme corresponding to 1× kinase reaction buffer. The plate was sealed with sealing film. After mixing, the plate was incubated at room temperature for 10 min to allow the compound and enzyme to fully combined.
(§6) d) 2 μL of ATP solution was added to all reaction wells to start the kinase reaction.
(§7) e) The test solution was prepared 5 min before the end of the kinase reaction.
(§8) f) After the kinase reaction was completed, 5 μL of diluted streptavidin-XL665 were added to all reaction wells, and immediately the diluted europium-labeled tyrosine kinase substrate antibody detection solution was added after mixing.
(§9) g) The plate was sealed and mixed well. […] The inhibition rate of each well was calculated through the fully active wells and the background signal wells, taking the average value in case of multiple wells. Meanwhile, the professional drawing analysis software PRISM 6.0 was used to fit the half maximal inhibitory concentration (IC50) of each test compound.

[2] = biological target: AKT1 (Homo sapiens, UniProt P31749); assay: In vitro enzyme activity test (HTRF kinEASE TK), AKT1; format: biochemical; details: ATP 2 μM, enzyme 0.6 ng/well, reaction 50 min
AKT1, sequence (P31749 whole entry): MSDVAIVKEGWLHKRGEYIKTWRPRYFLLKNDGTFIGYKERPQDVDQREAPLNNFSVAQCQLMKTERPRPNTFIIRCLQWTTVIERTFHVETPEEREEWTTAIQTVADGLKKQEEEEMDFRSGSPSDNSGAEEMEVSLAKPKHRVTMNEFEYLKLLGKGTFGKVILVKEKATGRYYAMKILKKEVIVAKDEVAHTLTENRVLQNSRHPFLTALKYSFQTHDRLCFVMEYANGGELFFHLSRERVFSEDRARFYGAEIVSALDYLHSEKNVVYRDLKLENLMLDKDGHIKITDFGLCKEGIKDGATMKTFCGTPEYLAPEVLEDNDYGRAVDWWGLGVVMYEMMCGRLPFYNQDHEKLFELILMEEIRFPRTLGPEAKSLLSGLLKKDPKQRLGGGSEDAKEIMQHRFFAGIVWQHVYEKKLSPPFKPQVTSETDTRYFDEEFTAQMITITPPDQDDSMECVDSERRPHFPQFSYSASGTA
Method: as §1, §2, §3, §4, §5, §6, §7, §8, §9

T1 sequence (Q9Y243 whole entry): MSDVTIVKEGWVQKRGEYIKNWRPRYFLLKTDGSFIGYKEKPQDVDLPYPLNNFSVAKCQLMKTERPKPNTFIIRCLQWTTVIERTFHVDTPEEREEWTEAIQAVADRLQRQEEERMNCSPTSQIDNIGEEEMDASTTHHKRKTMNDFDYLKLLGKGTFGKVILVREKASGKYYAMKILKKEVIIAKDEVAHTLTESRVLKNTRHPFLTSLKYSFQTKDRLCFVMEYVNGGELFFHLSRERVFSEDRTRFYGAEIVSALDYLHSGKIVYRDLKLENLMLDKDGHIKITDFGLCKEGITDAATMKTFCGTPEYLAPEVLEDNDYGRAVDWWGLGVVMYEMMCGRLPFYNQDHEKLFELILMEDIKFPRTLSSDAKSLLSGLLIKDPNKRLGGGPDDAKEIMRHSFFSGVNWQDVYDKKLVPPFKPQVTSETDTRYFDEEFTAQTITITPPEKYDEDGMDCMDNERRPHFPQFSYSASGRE

Row | IC50 [1] | IC50 [2] | SMILES
1 | 9.8 nM | 25 nM | CC(C)NC[C@@H](C(=O)N1C2CCC1CN(c1ncnc3c1[C@@H](C)OC(=O)N3)C2)c1ccc(Cl)cc1 (single isomer, unassigned) [Example 32 Isomer 2]
2 | 7.4 nM | 58.5 nM | CC(C)NC[C@@H](C(=O)N1CCN(c2ncnc3c2CC(C)C(=O)N3)CC1)c1ccc(Cl)cc1 (stereo partly drawn) [Example 19, 4-(4-((S)-2-(4-chlorophenyl)-3-(isopropylamino)propionyl)piperazin-1-yl)-6-methyl-5,8-dihydropyrido[2,3-d]pyrimidin-7(6H)-one hydrochloride]
3 | 0.2 nM | 1.6 nM | CC(C)NC[C@@H](C(=O)N1CC2CCC(C1)N2c1ncnc2c1[C@H](C)OC(=O)N2)c1ccc(Cl)cc1 (single isomer, unassigned) [Example 33 Isomer 1]
4 | 1.6 nM | 2.4 nM | CC(C)NC[C@@H](C(=O)N1CCN(c2ncnc3c2C(C)CC(=O)N3)CC1)c1ccc(Cl)cc1 (stereo partly drawn) [Example 1, 4-(4-((S)-2-(4-chlorophenyl)-3-(isopropylamino)propionyl)piperazin-1-yl)-5-methyl-5,8-dihydropyrido[2,3-d]pyrimidin-7(6H)-one]
5 | 9.1 nM | 25 nM | CC(C)NC[C@@H](C(=O)N1CCN(c2ncnc3c2C[C@H](C)C(=O)N3)CC1)c1ccc(Cl)cc1 (single isomer, unassigned) [Example 19 Isomer 2]
6 | 7.4 nM | 26.4 nM | CC(C)NC[C@@H](C(=O)N1CCN(c2ncnc3c2[C@H](C)CC(=O)N3)[C@H](C)C1)c1ccc(Cl)cc1 [Example 7, (R)-4-((R)-4-((S)-2-(4-chlorophenyl)-3-(isopropylamino)propionyl)-2-methylpiperazin-1-yl)-5-methyl-5,8-dihydropyrido[2,3-d]pyrimidin-7(6H)-one]
7 | 2.7 nM | 28.7 nM | CC(C)NC[C@@H](C(=O)N1CCN(c2ncnc3c2[C@H](C)CC(=O)N3)C[C@H]1C)c1ccc(Cl)cc1 [Example 8, (R)-4-((R)-4-((S)-2-(4-chlorophenyl)-3-(isopropylamino)propionyl)-3-methylpiperazin-1-yl)-5-methyl-5,8-dihydropyrido[2,3-d]pyrimidin-7(6H)-one]
8 | 212 nM | 146 nM | CC(C)NC[C@@H](C(=O)N1CCN(c2ncnc3c2N(C)C(=O)CN3)CC1)c1ccc(Cl)cc1 [Example 35, (S)-4-(4-(2-(4-chlorophenyl)-3-(isopropylamino)propionyl)piperazin-1-yl)-5-methyl-7,8-dihydropteridine-6(5H)-one]
9 | 0.52 nM | 30 nM | CC(C)NC[C@@H](C(=O)N1CC2CCC(C1)N2c1ncnc2c1N(C)CC(=O)N2)c1ccc(Cl)cc1 [Example 26]
10 | 4.8 nM | 55.1 nM | CC(C)NC[C@@H](C(=O)N1CCN(c2ncnc3c2[C@H](C)CC(=O)N3)CC12CC2)c1ccc(Cl)cc1 [Example 12, (R)-4-(4-((S)-2-(4-chlorophenyl)-3-(isopropylamino)propionyl)-4,7-diazaspiro[2.5]octan-7-yl)-5-methyl-5,8-dihydropyrido[2,3-d]pyrimidin-7(6H)-one]
11 | 18 nM | 82 nM | CC(C)NC[C@@H](C(=O)N1CCN(c2ncnc3c2C[C@@H](C)C(=O)N3)CC1)c1ccc(Cl)cc1 (single isomer, unassigned) [Example 19 Isomer 1]
12 | 0.19 nM | 1.5 nM | CC(C)NC[C@@H](C(=O)N1CCN(c2ncnc3c2[C@H](C)OC(=O)N3)CC1)c1ccc(Cl)cc1 (single isomer, unassigned) [Example 23 Isomer 1]
13 | 45 nM | 186 nM | CC(C)NC[C@@H](C(=O)N1CCN(c2ncnc3c2[C@H](C)OC(=O)N3)[C@@H]2C[C@@H]21)c1ccc(Cl)cc1 (single isomer, unassigned) [Example 34 Isomer 1]
14 | 7.5 nM | 52.4 nM | CC(C)NC[C@@H](C(=O)N1CCN(c2ncnc3c2CCC(=O)N3)CC1)c1ccc(Cl)cc1 [Example 3, (S)-4-(4-(2-(4-chlorophenyl)-3-(isopropylamino)propionyl)piperazin-1-yl)-5,8-dihydropyrido[2,3-d]pyrimidin-7(6H)-one]
15 | 89 nM | 613 nM | CC(C)NC[C@@H](C(=O)N1CCN(c2ncnc3c2[C@@H](C)OC(=O)N3)[C@@H]2C[C@@H]21)c1ccc(Cl)cc1 (single isomer, unassigned) [Example 34 Isomer 2]
16 | 0.48 nM | 22 nM | CC(C)NC[C@@H](C(=O)N1CCN(c2ncnc3c2N(C)CC(=O)N3)[C@H]2C[C@H]21)c1ccc(Cl)cc1 (single isomer, unassigned) [Example 27 Isomer 1]
17 | 1 nM | 12 nM | CC(C)NC[C@@H](C(=O)N1CCN(c2ncnc3c2[C@H](C(F)(F)F)CC(=O)N3)CC1)c1ccc(Cl)cc1 (single isomer, unassigned) [Example 16 Isomer 2]
18 | 55 nM | 260 nM | CC(C)NC[C@@H](C(=O)N1CC2CCC(C1)N2c1ncnc2c1[C@@H](C)OC(=O)N2)c1ccc(Cl)cc1 (single isomer, unassigned) [Example 33 Isomer 2]
19 | 42 nM | 201 nM | CC(C)NC[C@@H](C(=O)N1CCN(c2ncnc3c2[C@@H](C)OC(=O)N3)CC1)c1ccc(Cl)cc1 (single isomer, unassigned) [Example 23 Isomer 2]
20 | 139 nM | 776 nM | CC(C)NC[C@@H](C(=O)N1CCN(c2ncnc3c2[C@@H](C(F)(F)F)CC(=O)N3)CC1)c1ccc(Cl)cc1 (single isomer, unassigned) [Example 16 Isomer 1]
21 | 1.2 nM | 6 nM | CC(C)NC[C@@H](C(=O)N1CCN(c2ncnc3c2C(C)OC(=O)N3)CC1)c1ccc(Cl)cc1 (stereo partly drawn) [Example 23, 5-(4-((S)-2-(4-chlorophenyl)-3-(isopropylamino)propionyl)piperazin-1-yl)-4-methyl-1,4-dihydro-2H-pyrimido[4,5-d][1,3]oxazin-2-one formate]
22 | 6.6 nM | 285 nM | CC(C)NC[C@@H](C(=O)N1C[C@@H]2CN(c3ncnc4c3[C@H](C)CC(=O)N4)C[C@@H]2C1)c1ccc(Cl)cc1 [Example 13 cis-isomer, cis-(5R)-4-(5-((S)-2-(4-chlorophenyl)-3-(isopropylamino)propionyl)hexahydropyrrole[3,4-c]pyrrole-2(1H)-yl)-5-methyl-5,8-dihydropyrido[2,3-d]pyrimidin-7(6H)-one]
23 | 232 nM | 429 nM | CC(C)NC[C@@H](C(=O)N1CCN(c2ncnc3c2[C@@H](C)OC(=O)N3)[C@H]2C[C@H]21)c1ccc(Cl)cc1 (single isomer, unassigned) [Example 34 Isomer 3]
24 | 61 nM | 354 nM | CC(C)NC[C@@H](C(=O)N1CCN(c2ncnc3c2[C@H](C)OC(=O)N3)CC1)c1ccc(Cl)cc1 (single isomer, unassigned) [Example 24 Isomer 1]
25 | 0.4 nM | 1.1 nM | CC(C)NC[C@@H](C(=O)N1CCN(c2ncnc3c2N(C)CC(=O)N3)CC1)c1ccc(Cl)cc1 [Example 20, (S)-4-(4-(2-(4-chlorophenyl)-3-(isopropylamino)propionyl)piperazin-1-yl)-5-methyl-5,8-dihydropteridine-7(6H)-one hydrochloride]
26 | 0.41 nM | 0.63 nM | CC(C)NC[C@@H](C(=O)N1C2CCC1CN(c1ncnc3c1[C@H](C)OC(=O)N3)C2)c1ccc(Cl)cc1 (single isomer, unassigned) [Example 32 Isomer 1]
27 | 61 nM | 82 nM | CC(C)NC[C@@H](C(=O)N1CCN(c2ncnc3c2[C@H]2C[C@H]2C(=O)N3)CC1)c1ccc(Cl)cc1 (single isomer, unassigned) [Example 40 Isomer 2]
28 | 12 nM | 14 nM | CC(C)NC[C@@H](C(=O)N1CCN(c2ncnc3c2[C@@H]2C[C@@H]2C(=O)N3)CC1)c1ccc(Cl)cc1 (single isomer, unassigned) [Example 40 Isomer 1]

Row | SMILES | IC50 [1] | IC50 [2]
29 | CC(C)NC[C@@H](C(=O)N1CC2CCC(C1)N2c1ncnc2c1[C@H](C)CC(=O)N2)c1ccc(Cl)cc1 [Example 11, (R)-4-(3-((S)-2-(4-chlorophenyl)-3-(isopropylamino)propionyl)-3,8-diazabicyclo[3.2.1]octan-8-yl)-5-methyl-5,8-dihydropyrido[2,3-d]pyrimidin-7(6H)-one] | 0.25 nM | 3.5 nM

Source: patent US12617784B2, “AKT inhibitor” (Nanjing Chia Tai Tianqing Pharmaceutical Co., Ltd., priority 2019, dated 2026)
